The values below come from patent publication US4851536A, “Cyclohexylquinolines as inhibitors of interleukin 1” (American Home Products Corporation, priority 1988, dated 1989).

By inhibition is commonly meant the relative decrease from the control value, in per cent. Low values mean a response near the control, high ones a response far below the control.

For assay [1], the system named is IL 1-induced release of neutral protease from rabbit articular chondrocytes. Nature of the assay: Inhibition of IL 1-induced release of neutral protease from rabbit articular chondrocytes (% inhibition of protease secretion, azocoll degradation). Type of assay: cell-based, rabbit (male New Zealand White). The settings on record: Oryctolagus cuniculus, Chondrocyte, test compound 10 minutes prior to IL 1, 24 hours after IL 1 stimulation. As to the method:
The ability of the compounds of the inventions to inhibit interleukin 1 is measured by the ability of the test compounds to inhibit the IL 1-induced release of neutral protease from rabbit articular chondrocytes.
This assay is carried out as follows:
Isolation of rabbit chondrocytes:
Male New Zealand White rabbits are anesthetized with 50 mg/kg of ketamine (i.m.) and killed by an intracardiac injection of 3 mls of Nembutal. The knee joints of both legs are resected and the articular surfaces are exposed. Cartilage slices are obtained using a scalpel and are placed in a tissue culture dish (100 mm diameter) containing 10 mls of Hank's balanced salt solution (HBSS). The chondrocytes within the cartilage slices are then liberated by a series of enzyme digestions. The slices are incubated for 10 minutes at 37° C. in 0.05% hyaluronidase (Sigma H-3884), rinsed with HBSS and incubated with 0.2% trypsin (Sigma T-2395) for 10 minutes at 37° C. The slices are rinsed again and incubated for 10 minutes at 37° C. with 1.2% collagenase (Sigma C-5138). The slices are then rinsed again with HBSS and resuspended in 10 ml of Ham's F-12 medium containing 10% fetal bovine calf serum (FCS) and 0.2% collagenase and incubated overnight at 37° C. in a 5% CO2 incubator. The next day, the medium containing the digested cartilage fragments and liberated chondrocytes is transferred to a 15 ml centrifuge tube and the cells are collected by centrifugation and washed twice and resuspended in Ham's F-12 medium. The cells are then plated into 24-well tissue culture plates (2×10^5 cells/well) and incubated at 37° C. until confluent (usually 4-6 days).
Stimulation of chondrocytes and drug treatment
The confluent chondrocytes are rinsed twice with serum-free Ham's F-12 medium and 1 ml is added to each well. Fifty μl of purified human IL 1 (100 Units/ml; Genzyme Corporation, Boston, MA) is then added to stimulate these cells to secrete neutral protease. To measure drug effects, the cells are treated with test compound 10 minutes prior to additon of IL 1. The standard screening dose is 10 μM. Twenty-four hours after IL 1 stimulation, supernatant fluids are collected and assayed for neutral protease activity.
The neutral protease activity of chondrocyte supernatant fluids is determined by their ability to degrade an insoluble protease substrate, azocoll (Sigma). Supernatants are treated for 10 minutes at room temperature with 350 μM p-aminophenylmurcuric acetate to activate the latent enzyme. Three hundred μl of supernatant is then mixed with 500 μl of a 20 mg/ml suspension of azocoll and incubated at 37° C. for 18-24 hours with gentle rocking. The mixtures are centrifuged and the amount of substrate hydrolyzed is determined by measuring the absorbance of the supernatant at 520 nm.
Drug effects are calculated as the % change in enzyme activity (absorbance)by supernatants from drug-treated chondrocytes relative to enzyme activity of supernatants from vehicle-treated chondrocytes as follows:
% Inhibition of Protease Secretion= [formula]

Assay [2] shares this test system. Described as above. Type of assay: cell-based, rabbit (male New Zealand White). The settings on record: Oryctolagus cuniculus, Chondrocyte, test compound 10 minutes prior to IL 1, 24 hours after IL 1 stimulation. This is another data set of the same source.

In turn, `Clc1ccc2c(Cl)c3c(nc2c1)CCSC3` [Example 1A, 7,10-Dichloro-3,4-dihydro-1H-thiopyrano[4,3-b]quinoline] registered an inhibition at 10 µM in assay [1] of 35 ± 11%.

On to `Clc1ccc2c(NNc3ccccc3)c3c(nc2c1)CCSC3` [Example 1B, 7-Chloro-3,4-dihydro-10-(2-phenylhydrazino)-1H-thiopyrano[4,3-b]quinoline], for which the inhibition at 10 µM in assay [1] came to 98 ± 1%. Moreover, in assay [2], 0.1 µM produced 67% inhibition, 1 µM produced 94% inhibition and the inhibition at 5 µM amounted to 93 ± 5%.

Take `CC1CCc2nc3cc(Cl)ccc3c(Cl)c2C1` (stereo not shown) [Example 2A, 6,9-Dichloro-1,2,3,4-tetrahydro-2-methylacridine, quarter hydrate]: 10 µM produced 34 ± 26% inhibition in assay [1].

The compound `CC1CCc2nc3cc(Cl)ccc3c(NNc3ccccc3)c2C1` (stereo not shown) [Example 2B, 6-Chloro-1,2,3,4-tetrahydro-2-methyl-9-(2-phenylhydrazino)acridine] had an inhibition at 10 µM in assay [1] of 85 ± 6%. In addition, the inhibition at 1 µM in assay [2] stood at 36%.

With `Clc1ccc2c(Cl)c3c(nc2c1)CCC(c1ccccc1)C3` (stereo not shown) [Example 3A, 6,9-Dichloro-1,2,3,4-tetrahydro-2-phenylacridine, hemihydrate], the inhibition at 10 µM in assay [1] is at most 20%.

Compound `Clc1ccc2c(NNc3ccccc3)c3c(nc2c1)CCC(c1ccccc1)C3` (stereo not shown) [Example 3B, 6-Chloro-1,2,3,4-tetrahydro-2-phenyl-9-(2-phenylhydrazino)acridine] displayed an inhibition at 10 µM in assay [1] of 81 ± 2%. This compound also showed an inhibition at 1 µM in assay [2] of 27%.

`Clc1c2c(nc3ccccc13)CCSC2` [Example 4, 10-Chloro-3,4-dihydro-1H-thiopyrano[4,3-b]quinoline]: 10 µM produced 43% inhibition in assay [1]. Further, in assay [2], the inhibition at 1 µM came out at 38% and the inhibition at 5 µM is 46%.

In turn, `c1ccc(NNc2c3c(nc4ccccc24)CCSC3)cc1` [Example 5, 3,4-Dihydro-10-(2-phenylhydrazino)-1H-thiopyrano[4,3-b]quinoline, three-quarters hydrate] registered an inhibition at 10 µM in assay [1] of 79 ± 14%. In assay [2], this compound registered an inhibition at 1 µM of 37% and an inhibition at 5 µM of 55 ± 22%.

In the case of `O=S1(=O)CCc2nc3ccccc3c(Cl)c2C1` [Example 6, 10-Chloro-3,4-dihydro-1H-thiopyrano[4,3-b]quinoline 2,2-dioxide], the inhibition at 10 µM in assay [1] stood at 32%. In assay [2], this compound had an inhibition at 5 µM of 19%.

In assay [1], `O=S1(=O)CCc2nc3cc(Cl)ccc3c(Cl)c2C1` [Example 7, 7,10-Dichloro-3,4-dihydro-1H-thiopyrano[4,3-b]quinoline 2,2-dioxide] had an inhibition at 10 µM of 25%. Besides, in assay [2], at 1 µM the inhibition was 10% and the inhibition at 5 µM turned out to be 26%.

`O=S1(=O)CCc2nc3cc(Cl)ccc3c(NNc3ccccc3)c2C1` [Example 8, 7-Chloro-3,4-dihydro-10-(2-phenylhydrazino)-1H-thiopyrano[4,3-b]quinoline 2,2-dioxide]: at 10 µM the inhibition in assay [1] was 16%. Also, in assay [2], the inhibition at 1 µM is 3% and the inhibition at 5 µM came out at 37%.

For `COC(=O)C1CCc2nc3cc(Cl)ccc3c(Cl)c2C1` (stereo not shown) [Example 9, 6,9-Dichloro-1,2,3,4-tetrahydro-2-acridinecarboxylic acid methyl ester], at 10 µM the inhibition in assay [1] was 58%. In assay [2], this compound came in with an inhibition at 1 µM of 30% and an inhibition at 5 µM of 53%.

Compound `CCOC(=O)C1CCc2nc3cc(Cl)ccc3c(NNc3ccccc3)c2C1` (stereo not shown) [Example 10, 6-Chloro-1,2,3,4-tetrahydro-9-(2-phenylhydrazino)-2-acridinecarboxylic acid ethyl ester] showed an inhibition at 10 µM in assay [1] of 96%. In assay [2], this compound had an inhibition at 0.1 µM of 70% and an inhibition at 1 µM of 91%.

With `O=C(O)C1CCc2nc3cc(Cl)ccc3c(Cl)c2C1` (stereo not shown) [Example 11, 6,9-Dichloro-1,2,3,4-tetrahydro-2-acridinecarboxylic acid], in assay [1], the inhibition at 10 µM is 88%. Besides, in assay [2], the inhibition at 0.1 µM was 58% and the inhibition at 1 µM was 50%.

Regarding `O=C(O)C1CCc2nc3cc(Cl)ccc3c(NNc3ccccc3)c2C1` (stereo not shown) [Example 12, 6-Chloro-1,2,3,4-tetrahydro-9-(2-phenylhydrazino)-2-acridinecarboxylic acid hemihydrate], in assay [1], the inhibition at 10 µM amounted to 68%. Besides, in assay [2], testing at 0.1 µM gave an inhibition of 57% and the inhibition at 1 µM came out at 61%.
